Read-outs that look alike come from different tables or passages of the source. Where a SMILES comes first, the peptide text is derived from it. [ ]: non-standard residue; d: D form. pGlu = O=C1CC[C@@H](C(=O)O)N1
Target: T1, Dappu-RPCHR (Daphnia pulex RPCH receptor) (Daphnia pulex, UniProt A0A240FBD5)
T1 sequence (A0A240FBD5 1-451): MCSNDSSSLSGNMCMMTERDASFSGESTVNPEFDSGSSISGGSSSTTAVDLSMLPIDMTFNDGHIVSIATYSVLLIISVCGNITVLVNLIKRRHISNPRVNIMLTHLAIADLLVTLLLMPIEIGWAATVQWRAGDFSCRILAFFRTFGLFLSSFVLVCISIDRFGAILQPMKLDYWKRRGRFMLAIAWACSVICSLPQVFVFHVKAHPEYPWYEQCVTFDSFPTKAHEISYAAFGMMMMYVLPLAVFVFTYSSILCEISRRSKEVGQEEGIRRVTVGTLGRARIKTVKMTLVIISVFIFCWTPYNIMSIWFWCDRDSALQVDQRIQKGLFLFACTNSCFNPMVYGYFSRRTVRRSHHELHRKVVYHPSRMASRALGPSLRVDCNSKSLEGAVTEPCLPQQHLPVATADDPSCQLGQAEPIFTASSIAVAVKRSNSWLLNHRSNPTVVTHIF
Assay: in vitro cell-based bioluminescence (aequorin Ca2+) assay on Dappu-RPCHR expressing CHO-WTA11 cells
Settings: for fold lower affinity / potency relative to Dappu-RPCH: from EC50 values
Experimental: Pharmacological analyses were performed in Chinese hamster ovary (CHO) WTA11 cells stably co-expressing the bioluminescent protein apoaequorin and the promiscuous Gα16 subunit, which couples most agonist-induced GPCRs to the phospholipase C and Ca^2+ pathway, irrespective of their natural signalling cascade.
CHO-WTA11 cells were cultured in monolayers in Dulbecco’s Modified Eagles Medium nutrient mixture F12-Ham (DMEM/F12) with L-glutamine, 15 mM HEPES, sodium bicarbonate and phenol red (Sigma-Aldrich) supplemented with 100 IU/ml penicillin and 100 µg/ml streptomycin (Gibco), 10% heat-inactivated fetal bovine serum (Gibco) and […] zeocin (Gibco). All cells were maintained in an incubator at 37 °C with a constant supply of 5% CO2.
Transfections with pcDNA3.1-Dappu-RPCHR or empty pcDNA3.1 vector were carried out in T75 flasks at 60–80% confluency. Transfection medium was prepared using the Lipofectamine LTX Kit (Invitrogen) with 2.5 ml Opti-MEM® (Gibco), 12.5 µl PlusTM Reagent and 5 µg vector construct in 5 ml polystyrene round-bottom tubes. After a 5 min incubation period at room temperature, 30 µl LTX was added to the medium. After a further incubation period of 30 min at room temperature, the medium was removed and DNA/LTX mix was added dropwise to the cells followed by 3 ml of fresh complete medium.
Following transfection, cells were incubated overnight (37 °C, 5% CO2), then 10 ml of cell medium was added followed by a second overnight incubation (37 °C, 5% CO2). Ligand-induced changes in intracellular Ca^2+ were then monitored in the cells as described below.
CHO-WTA11 cells transfected with receptor construct (or empty vector) plasmid were detached with PBS, complemented with 0.2% EDTA (pH 8.0), and rinsed off the flask with DMEM/F12 with L-glutamine and 15 mM HEPES (Sigma-Aldrich). The number of viable and nonviable cells was determined using a TC20 automated Cell Counter (BIO-RAD). The cells were pelleted for 5 minutes at 800 rpm and resuspended to a density of 5.10^6 cells/ml in sterile filtered bovine serum albumin (BSA) medium (DMEM/F12 with L-glutamine and 15 mM Hepes, supplemented with 0.1% BSA) and loaded with 5 µM Coelenterazine_h (Invitrogen) for 4 h in the dark, at room temperature, while gently shaking to reconstitute the holo-enzyme aequorin. After a 10-fold dilution, cell solution (50 µl) was delivered to each well in a 96-well plate (~25000 cells/well) and cells were exposed to potential ligands reconstituted in BSA medium and distributed across the plate. In every row, BSA medium alone was placed in one well to serve as the negative control (blank). The Ca^2+ response was recorded for 30 s on a Mithras LB 940 (Berthold Technologies). After 30 s, 0.1% Triton X-100, a non-ionic surfactant, was added to the same well to measure the total cellular Ca^2+ response. The total response (ligand + Triton X-100), which is directly related to the number of cells present in the well, was used to normalise the response. The response of each negative control was subtracted from the luminescence obtained for wells within the same row. Calculations were made using the output file from the Microwin software (Berthold Technologies) in Excel (Microsoft). Further analysis was done in GraphPad Prism 5.

[1] = Table 1, AKH/RPCH and related peptides, calculated from dose-response curves
[2] = Table 2, analogues of Dappu-RPCH

Compound | EC50 [1] | EC50 [2] | further results
CC(C)[C@H](NC(=O)[C@@H]1CCC(=O)N1)C(=O)N[C@@H](CC(N)=O)C(=O)N[C@@H](Cc1ccccc1)C(=O)N[C@@H](CO)C(=O)N1CCC[C@H]1C(=O)N[C@@H](CO)C(=O)N[C@@H](Cc1c[nH]c2ccccc12)C(N)=O [Anaim-AKH, pQVNFSPSWamide] ([pGlu]VNFSPSW-NH2) | 0.224 nM |  | 
CC(C)[C@H](NC(=O)[C@@H]1CCC(=O)N1)C(=O)N[C@@H](CC(N)=O)C(=O)N[C@@H](Cc1ccccc1)C(=O)N[C@@H](CO)C(=O)N[C@H](C(=O)N[C@@H](CCCCN)C(=O)N[C@@H](Cc1c[nH]c2ccccc12)C(N)=O)[C@@H](C)O [Argsi-RPCH, pQVNFSTKWamide] ([pGlu]VNFSTKW-NH2) | 21.3 nM |  | 
CC(C)C[C@H](NC(=O)[C@@H]1CCC(=O)N1)C(=O)N[C@@H](CC(N)=O)C(=O)N[C@@H](Cc1ccccc1)C(=O)N[C@@H](CO)C(=O)N1CCC[C@H]1C(=O)N[C@@H](CO)C(=O)N[C@@H](Cc1c[nH]c2ccccc12)C(N)=O [Corpu-AKH, pQLNFSPSWamide] ([pGlu]LNFSPSW-NH2) | 0.212 nM |  | EC50 values (in words): more or less the same as for Anaim-AKH
CC(C)[C@H](NC(=O)[C@@H]1CCC(=O)N1)C(=O)N[C@@H](CC(N)=O)C(=O)N[C@@H](Cc1ccccc1)C(=O)N[C@@H](CO)C(=O)N[C@H](C(=O)NCC(=O)N[C@@H](Cc1c[nH]c2ccccc12)C(N)=O)[C@@H](C)O [Grybi-AKH, pQVNFSTGWamide] ([pGlu]VNFSTGW-NH2) | 0.0667 nM |  | EC50: 0.067 nM
CC(C)[C@H](NC(=O)[C@@H]1CCC(=O)N1)C(=O)N[C@@H](CC(N)=O)C(=O)N[C@@H](Cc1ccccc1)C(=O)N[C@H](C(=O)N1CCC[C@H]1C(=O)N[C@@H](CO)C(=O)N[C@@H](Cc1c[nH]c2ccccc12)C(N)=O)[C@@H](C)O [Libau-AKH, pQVNFTPSWamide] ([pGlu]VNFTPSW-NH2) | 0.179 nM |  | 
CC(C)[C@H](NC(=O)[C@@H]1CCC(=O)N1)C(=O)N[C@@H](CC(N)=O)C(=O)N[C@@H](Cc1ccccc1)C(=O)N[C@@H](CO)C(=O)N1CCC[C@H]1C(=O)NCC(=O)N[C@@H](Cc1c[nH]c2ccccc12)C(N)=O [Manto-CC, pQVNFSPGWamide] ([pGlu]VNFSPGW-NH2) | 0.1 nM |  | EC50 values (in words): more or less the same as for Anaim-AKH
CC(C)C[C@H](NC(=O)[C@@H]1CCC(=O)N1)C(=O)N[C@@H](CC(N)=O)C(=O)N[C@@H](Cc1ccccc1)C(=O)N[C@@H](CO)C(=O)N[C@@H](CO)C(=O)NCC(=O)N[C@@H](Cc1c[nH]c2ccccc12)C(N)=O [Nepci-AKH, pQLNFSSGWamide] ([pGlu]LNFSSGW-NH2) | 0.272 nM |  | fold lower affinity / potency relative to Dappu-RPCH: about 4 fold
CC(C)C[C@H](NC(=O)[C@@H]1CCC(=O)N1)C(=O)N[C@@H](CC(N)=O)C(=O)N[C@@H](Cc1ccccc1)C(=O)N[C@@H](CO)C(=O)N1CCC[C@H]1C(=O)NCC(=O)N[C@@H](Cc1c[nH]c2ccccc12)C(N)=O [Panbo-RPCH, pQLNFSPGWamide] ([pGlu]LNFSPGW-NH2) | 7.93 nM |  | 
CC(C)[C@H](NC(=O)[C@@H]1CCC(=O)N1)C(=O)N[C@@H](CC(N)=O)C(=O)N[C@@H](Cc1ccccc1)C(=O)N[C@@H](CO)C(=O)N1CCC[C@H]1C(=O)N[C@@H](CC(N)=O)C(=O)N[C@@H](Cc1c[nH]c2ccccc12)C(N)=O [Peram-CAH-I, pQVNFSPNWamide] ([pGlu]VNFSPNW-NH2) | 0.393 nM |  | EC50 values (in words): more or less the same as for Anaim-AKH
CC(C)[C@H](NC(=O)[C@@H]1CCC(=O)N1)C(=O)N[C@@H](CC(N)=O)C(=O)N[C@@H](Cc1ccccc1)C(=O)N[C@@H](CO)C(=O)N1CCC[C@H]1C(=O)N[C@@H](CO)C(=O)N[C@@H](Cc1c[nH]c2ccccc12)C(=O)NCC(=O)N[C@@H](CC(N)=O)C(N)=O [Placa-HrTH, pQVNFSPSWGNamide] ([pGlu]VNFSPSWGN-NH2) | 0.664 nM |  | EC50: 0.66 nM; fold lower affinity / potency relative to Dappu-RPCH: ca. 10 fold
CC(C)C[C@H](NC(=O)[C@@H]1CCC(=O)N1)C(=O)N[C@@H](CC(N)=O)C(=O)N[C@@H](Cc1ccccc1)C(=O)N[C@@H](CO)C(=O)N[C@H](C(=O)NCC(=O)N[C@@H](Cc1c[nH]c2ccccc12)C(N)=O)[C@@H](C)O [Schgr-AKH-II, pQLNFSTGWamide] ([pGlu]LNFSTGW-NH2) | 0.237 nM |  | fold lower affinity / potency relative to Dappu-RPCH: about 4 fold
C[C@H](NC(=O)[C@@H]1CCC(=O)N1)C(=O)N[C@@H](CC(N)=O)C(=O)N[C@@H](Cc1ccccc1)C(=O)N[C@@H](CO)C(=O)N[C@H](C(=O)N[C@@H](CO)C(=O)N[C@@H](Cc1c[nH]c2ccccc12)C(N)=O)[C@@H](C)O [[Ala^2]Dappu-RPCH, pQANFSTSWamide] ([pGlu]ANFSTSW-NH2) |  | 17.7 nM | 
CC(C)[C@H](NC(=O)[C@@H]1CCC(=O)N1)C(=O)N[C@@H](C)C(=O)N[C@@H](Cc1ccccc1)C(=O)N[C@@H](CO)C(=O)N[C@H](C(=O)N[C@@H](CO)C(=O)N[C@@H](Cc1c[nH]c2ccccc12)C(N)=O)[C@@H](C)O [[Ala^3]Dappu-RPCH, pQVAFSTSWamide] ([pGlu]VAFSTSW-NH2) |  | 156 nM | 
CC(C)[C@H](NC(=O)[C@@H]1CCC(=O)N1)C(=O)N[C@@H](CC(N)=O)C(=O)N[C@@H](C)C(=O)N[C@@H](CO)C(=O)N[C@H](C(=O)N[C@@H](CO)C(=O)N[C@@H](Cc1c[nH]c2ccccc12)C(N)=O)[C@@H](C)O [[Ala^4]Dappu-RPCH, pQVNASTSWamide] ([pGlu]VNASTSW-NH2) |  | 299 nM | 
CC(C)[C@H](NC(=O)[C@@H]1CCC(=O)N1)C(=O)N[C@@H](CC(N)=O)C(=O)N[C@@H](Cc1ccccc1)C(=O)N[C@@H](C)C(=O)N[C@H](C(=O)N[C@@H](CO)C(=O)N[C@@H](Cc1c[nH]c2ccccc12)C(N)=O)[C@@H](C)O [[Ala^5]Dappu-RPCH, pQVNFATSWamide] ([pGlu]VNFATSW-NH2) |  | 3.61 nM | 
CC(C)[C@H](NC(=O)[C@@H]1CCC(=O)N1)C(=O)N[C@@H](CC(N)=O)C(=O)N[C@@H](Cc1ccccc1)C(=O)N[C@@H](CO)C(=O)N[C@@H](C)C(=O)N[C@@H](CO)C(=O)N[C@@H](Cc1c[nH]c2ccccc12)C(N)=O [[Ala^6]Dappu-RPCH, pQVNFSASWamide] ([pGlu]VNFSASW-NH2) |  | 0.532 nM | 
CC(C)[C@H](NC(=O)[C@@H]1CCC(=O)N1)C(=O)N[C@@H](CC(N)=O)C(=O)N[C@@H](Cc1ccccc1)C(=O)N[C@@H](CO)C(=O)N[C@H](C(=O)N[C@@H](C)C(=O)N[C@@H](Cc1c[nH]c2ccccc12)C(N)=O)[C@@H](C)O [[Ala^7]Dappu-RPCH, pQVNFSTAWamide] ([pGlu]VNFSTAW-NH2) |  | 0.355 nM | 
CC(C)[C@H](NC(=O)[C@@H]1CCC(=O)N1)C(=O)N[C@@H](CC(N)=O)C(=O)N[C@@H](Cc1ccccc1)C(=O)N[C@@H](CO)C(=O)N[C@H](C(=O)N[C@@H](CO)C(=O)N[C@@H](C)C(N)=O)[C@@H](C)O [[Ala^8]Dappu-RPCH, pQVNFSTSAamide] ([pGlu]VNFSTSA-NH2) |  | 131 nM | 
CC(=O)N[C@@H](C)C(=O)N[C@H](C(=O)N[C@@H](CC(N)=O)C(=O)N[C@@H](Cc1ccccc1)C(=O)N[C@@H](CO)C(=O)N[C@H](C(=O)N[C@@H](CO)C(=O)N[C@@H](Cc1c[nH]c2ccccc12)C(N)=O)[C@@H](C)O)C(C)C [[N-Ac-Ala^1]Dappu-RPCH, [NAc-Ala]-VNFSTSWamide] (Ac-AVNFSTSW-NH2) |  | 48.7 nM | fold lower affinity / potency relative to Dappu-RPCH: 750 fold
